This is an account of results in EPA's ToxValDB 9.5 (doi:10.2903/j.efsa.2011.1962).

Molecules are shown by their SMILES.

One data set relates to Canidae. The conditions noted are these: subchronic; duration: 90 days; oral; Dog Other; histopathology: nonneoplastic.
Another data set concerns Daphnia magna. The conditions noted are these: chronic/long-term; duration: 21 days; reproduction.
Another data set relates to Lepomis macrochirus. The conditions noted are these: chronic/long-term; duration: 28 days; body weight.
The subject of the next data set is Oryctolagus sp. The conditions noted are these: developmental; development.
The next data set concerns Tagia sp. Particulars: acute; duration: 14 days; mortality.
The test system of the next data set is Typhlodromus pyri. In words: LR50; higher = less toxic. Particulars: not reported; mortality.

With `CC(C)C(O)(c1ccc(OC(F)(F)F)cc1)c1cncnc1` (stereo unspecified) [Flurprimidol], the no-observed-adverse-effect level (NOAEL) with Canidae was 1.5 mg/kg-day; with Oryctolagus sp., 9 mg/kg-day; with Rattus norvegicus (developmental, development), 10 mg/kg-day; in the data set on Rattus norvegicus (reproduction developmental, reproduction), 1.8 mg/kg-day; in the data set on Rattus norvegicus (subchronic, duration: 90 days, oral, organ weight), 1.96 mg/kg-day. Besides, the NOEC with Daphnia magna was determined as 1.7 mg/L; with Lepomis macrochirus it was 0.42 mg/L; in the data set with Tagia sp., 62.6 mg/kg. The compound further showed an LOAEL in the data set with Rattus norvegicus (chronic, duration: 2 years, organ weight) of 1 mg/kg-day. The same compound displayed an NOEL with Rattus norvegicus (short-term, oral, diet, body weight) of 1.62 mg/kg-day. Also, the LR50 in the data set with Typhlodromus pyri was above 29.6 g/ha.
